Measured values: patent US9771378B2 (Denali Therapeutics, Inc., priority 2014, dated 2017)

The compounds below were run on Aβ42 (human neuroglioma H4 cells expressing human wild type APP751) (assay: In vitro cell screening assay with sandwich ELISA quantification of Aβ42 peptide). Conditions: H4 cells stably expressing human wild type APP751; Pro293 chemically defined medium; compounds 0.003-10 μM; incubated overnight (16-18 h); supernatant Aβ42 by sandwich ELISA; normalized to DMSO and DAPT; read-out: Aβ42 H4 Prot Fre IC50.
Format: cell-based
Experimental: Human neuroglioma H4 cells were transfected with a pcDNA3.1 plasmid expressing human wild type APP751 cDNA and a stable cell line was generated using G418 selection. Cells are plated at 15,000 cells/well in Costar 96-well plates and placed at 37° C. and 5% CO2. Six hours after plating, cells are washed three times with Pro293™ chemically defined medium, followed by addition of compounds (0.003-10 μM, final DMSO concentration of 0.33%). Plates were incubated overnight (16-18 h) and supernatant was removed for quantification of AP peptides by sandwich ELISA. Cytotoxicity was evaluated using Cell-Titer 96W AQueous One Solution Cell Proliferation Assay according to the manufacturer's protocol.
ELISA Measurements of Aβ Peptides
Aβ peptide levels were quantified by sandwich ELISA. 96-well plates are coated with C-terminal specific Aβ antibodies recognizing either Aβ37, Aβ38, Aβ40, Aβ42, Aβ43 or a N-terminal specific Aβ antibody to detect Aβ 1-x. Plates are then blocked overnight at 4° C. with 1% bovine serum albumin (BSA) in PBS-T. Plates are washed and 100 μl of cultured cell supernatant or synthetic Aβ peptide standards and a detection antibody (4G8-HRP) are applied to the blocked plate and incubated overnight at 4° C. The next day, wells are washed before the addition […] of detection substrate (TMB peroxidase). Plates are then read for absorbance at 450 nm on a Molecular Devices SpectraMax M5e Microplate Reader.
IC50 values were calculated from values reported as percent of DMSO controls using nonlinear regression, based on a sigmoidal dose-response (variable slope) model. GraphPAD software from Prism used for calculation.
For `Cc1cn(-c2ccc(Nc3ncc4c(n3)N(C)C(c3cc(F)cc(F)c3)CO4)cc2)cn1` (single isomer, unassigned; (+)) [Example 23B], the IC50 was 32 nM. Work on `Cc1cc(-c2ccc(Nc3ncc4c(n3)N(C)C(c3ccccc3)CO4)cc2)ccn1` (single isomer, unassigned; (+)) [Example 24A] yielded an IC50 of 68 nM. Compound `Cc1cn(-c2ccc(Nc3ncc4c(n3)N(C)C(c3ccccc3)CO4)cc2F)cn1` (single isomer, unassigned; (+)) [Example 25A] has an IC50 of 14 nM. `Cc1cn(-c2ccc(Nc3ncc4c(n3)N(C)C(c3ccccc3)CO4)cc2)cn1` (single isomer, unassigned; (+)) [Example 26A] was tested, and the IC50 was 55 nM. `Cc1cc(-c2ccc(Nc3ncc4c(n3)N(C)C(c3ccccc3)CO4)cc2F)ccn1` (single isomer, unassigned; (+)) [Example 27A] gave an IC50 of 306 nM. `Cc1cc(-c2ccc(Nc3ncc4c(n3)N(C)C(c3cc(F)cc(F)c3)CO4)cc2)ccn1` (single isomer, unassigned; (+)) [Example 28B] showed an IC50 of 60 nM. In the case of `Cc1cc(-c2ccc(Nc3ncc4c(n3)N(C)C(c3ccccc3C)CO4)cc2)ccn1` (single isomer, unassigned; (+)) [Example 29B], the IC50 is reported as 68 nM. For `COc1cc(Nc2ncc3c(n2)N(C)C(c2cc(F)cc(F)c2)CO3)ccc1-n1cnc(C)c1` (single isomer, unassigned; (+)) [Example 30B], the IC50 was 23 nM. Compound `COc1cc(Nc2ncc3c(n2)N(C)C(c2ccccc2C)CO3)ccc1-n1cnc(C)c1` (single isomer, unassigned; (+)) [Example 31B] has an IC50 of 29.6 nM. Work on `Cc1cc(-c2ccc(Nc3ncc4c(n3)N(C)C(c3ccccc3C)CO4)cc2F)ccn1` (single isomer, unassigned; (+)) [Example 32B] yielded an IC50 of 131 nM. `Cc1cn(-c2ccc(Nc3ncc4c(n3)N(C)C(c3cc(F)cc(F)c3)CO4)cc2F)cn1` (single isomer, unassigned; (+)) [Example 33A] showed an IC50 of 14 nM. In the case of `Cc1cn(-c2ccc(Nc3ncc4c(n3)N(C)C(c3ccccc3C)CO4)cc2F)cn1` (single isomer, unassigned; (+)) [Example 34A], the IC50 is reported as 20 nM. Compound `COc1cc(Nc2ncc3c(n2)N(C)C(c2ccccc2C)CO3)ccc1-c1ccnc(C)c1` (single isomer, unassigned; (+)) [Example 35B] has an IC50 of 35 nM. `Cc1cc(-c2ccc(Nc3ncc4c(n3)N(C)C(c3cc(F)c(F)c(F)c3)CO4)cc2F)ccn1` (single isomer, unassigned; (+)) [Example 36A] was tested, and the IC50 was 107 nM. For `Cc1cc(-c2ccc(Nc3ncc4c(n3)N(C)C(c3cc(F)c(F)c(F)c3)CO4)cc2)ccn1` (single isomer, unassigned; (+)) [Example 37A], the IC50 was 59 nM. `COc1cc(Nc2ncc3c(n2)N(C)C(c2cc(F)c(F)c(F)c2)CO3)ccc1-c1ccnc(C)c1` (single isomer, unassigned; (+)) [Example 39A] showed an IC50 of 41 nM. `COc1cc(Nc2ncc3c(n2)N(C)C(c2cc(F)c(F)c(F)c2)CO3)ccc1-n1cnc(C)c1` (single isomer, unassigned; (+)) [Example 40B] was tested, and the IC50 was 11 nM. `Cc1cc(-c2ccc(Nc3ncc4c(n3)N(C)C(c3cc(F)cc(F)c3)CO4)cc2F)ccn1` (single isomer, unassigned; (+)) [Example 41A] gave an IC50 of 77 nM. `COc1cc(Nc2ncc3c(n2)N(C)C(c2cc(F)cc(F)c2)CO3)ccc1-c1ccnc(C)c1` (single isomer, unassigned; (+)) [Example 42A] gave an IC50 of 36 nM. Work on `Cc1cn(-c2ccc(Nc3ncc4c(n3)N(C)C(c3ccccc3C)CO4)cc2)cn1` (single isomer, unassigned; (+)) [Example 43A] yielded an IC50 of 31 nM. Compound `COc1cc(Nc2ncc3c(n2)N(C)C(Cc2ccccc2)CO3)ccc1-n1cnc(C)c1` (single isomer, unassigned; (+)) [Example 47A] has an IC50 of 23 nM. `COc1cc(Nc2ncc3c(n2)N(C)C(c2ccc(F)cc2F)CO3)ccc1-n1cnc(C)c1` (single isomer, unassigned; (+)) [Example 48B] was tested, and the IC50 was 20 nM. Compound `COc1cc(Nc2ncc3c(n2)N(C)C(c2ccc(F)cc2)CO3)ccc1-n1cnc(C)c1` (single isomer, unassigned; (+)) [Example 49B] has an IC50 of 9 nM. `COc1cc(Nc2ncc3c(n2)N(C)C(c2ccccc2Cl)CO3)ccc1-n1cnc(C)c1` (single isomer, unassigned; (+)) [Example 51B] was tested, and the IC50 was 58 nM. `COc1cc(Nc2ncc3c(n2)N(C)C(c2ccccc2C(F)(F)F)CO3)ccc1-n1cnc(C)c1` (single isomer, unassigned; (+)) [Example 55B] showed an IC50 of 66 nM. `Cc1cc(-c2ccc(Nc3ncc4c(n3)N(C)C(c3ccc(F)cc3)CO4)cc2F)ccn1` (single isomer, unassigned; (+)) [Example 56A] was tested, and the IC50 was 71 nM. With `Cc1cc(-c2ccc(Nc3ncc4c(n3)N(C)C(Cc3ccccc3)CO4)cc2F)ccn1` (single isomer, unassigned; (+)) [Example 57A] the IC50 was 118 nM. Compound `Cc1cn(-c2ccc(Nc3ncc4c(n3)N(C)C(c3ccc(F)cc3)CO4)cc2F)cn1` (single isomer, unassigned; (+)) [Example 58A] has an IC50 of 28 nM. Work on `Cc1cn(-c2ccc(Nc3ncc4c(n3)N(C)C(Cc3ccccc3)CO4)cc2F)cn1` (single isomer, unassigned; (+)) [Example 59A] yielded an IC50 of 81 nM. `COc1cc(Nc2ncc3c(n2)N(C)C(c2ccccc2OC(F)(F)F)CO3)ccc1-n1cnc(C)c1` (single isomer, unassigned; (+)) [Example 60B] showed an IC50 of 78 nM. `COc1cc(Nc2ncc3c(n2)N(C)C(c2ccc(F)cc2)CO3)ccc1-c1ccnc(C)c1` (single isomer, unassigned; (+)) [Example 61B] showed an IC50 of 58 nM. `COc1cc(Nc2ncc3c(n2)N(C)C(c2ccccc2OC(F)(F)F)CO3)ccc1-c1ccnc(C)c1` (single isomer, unassigned; (+)) [Example 62B] gave an IC50 of 165 nM. Work on `COc1cc(Nc2ncc3c(n2)N(C)C(c2ccc(F)cc2F)CO3)ccc1-c1ccnc(C)c1` (single isomer, unassigned; (+)) [Example 63B] yielded an IC50 of 64 nM. `Cc1cn(-c2ccc(Nc3ncc4c(n3)N(C)C(c3ccccc3OC(F)(F)F)CO4)cc2F)cn1` (single isomer, unassigned; (+)) [Example 64A] showed an IC50 of 402 nM. In the case of `Cc1cc(-c2ccc(Nc3ncc4c(n3)N(C)C(c3ccc(F)cc3F)CO4)cc2F)ccn1` (single isomer, unassigned; (+)) [Example 66A], the IC50 is reported as 488 nM. With `Cc1cn(-c2ccc(Nc3ncc4c(n3)N(C)C(c3ccccc3Cl)CO4)cc2F)cn1` (single isomer, unassigned; (+)) [Example 67A] the IC50 was 124 nM. Work on `COc1cc(Nc2ncc3c(n2)N(C)C(Cc2ccccc2)CO3)ccc1-c1ccnc(C)c1` (single isomer, unassigned; (+)) [Example 68A] yielded an IC50 of 50 nM. `Cc1cn(-c2ccc(Nc3ncc4c(n3)N(C)C(c3ccc(F)cc3F)CO4)cc2F)cn1` (single isomer, unassigned; (+)) [Example 69A] gave an IC50 of 69 nM. With `COc1cc(Nc2ncc3c(n2)N(C)C(c2ccccc2C(F)(F)F)CO3)ccc1-c1ccnc(C)c1` (single isomer, unassigned; (+)) [Example 70B] the IC50 was 151 nM. `Cc1cn(-c2ccc(Nc3ncc4c(n3)N(C)C(c3ccccc3C(F)(F)F)CO4)cc2F)cn1` (single isomer, unassigned; (+)) [Example 84A] gave an IC50 of 203 nM. In the case of `COc1cc(Nc2ncc3c(n2)N(C)C(c2ccccc2Cl)CO3)ccc1-c1ccnc(C)c1` (single isomer, unassigned; (+)) [Example 85B], the IC50 is reported as 130 nM. Compound `COc1cc(Nc2ncc3c(n2)N(C)C(c2cc(C(F)(F)F)ccc2Cl)CO3)ccc1-n1cnc(C)c1` (single isomer, unassigned; (+)) [Example 88A] has an IC50 of 37 nM. `COc1cc(Nc2ncc3c(n2)N(C)C(c2ccc(F)cc2Cl)CO3)ccc1-n1cnc(C)c1` (single isomer, unassigned; (+)) [Example 93B] gave an IC50 of 32 nM. `COc1cc(Nc2ncc3c(n2)N(C)C(c2ccc(F)cc2C(F)(F)F)CO3)ccc1-n1cnc(C)c1` (single isomer, unassigned; (+)) [Example 94B] was tested, and the IC50 was 29 nM. For `COc1cc(Nc2ncc3c(n2)N(C)C(c2ccc(Cl)cc2Cl)CO3)ccc1-n1cnc(C)c1` (single isomer, unassigned; (+)) [Example 95B], the IC50 was 15 nM. For `Cc1cn(-c2ccc(Nc3ncc4c(n3)N(C)C(c3ccc(Cl)cc3Cl)CO4)cc2F)cn1` (single isomer, unassigned; (+)) [Example 96A], the IC50 was 76 nM. Work on `COc1cc(Nc2ncc3c(n2)N(C)C(c2cc(F)c(F)cc2F)CO3)ccc1-n1cnc(C)c1` (single isomer, unassigned; (+)) [Example 97B] yielded an IC50 of 13 nM. For `Cc1cn(-c2ccc(Nc3ncc4c(n3)N(C)C(c3cc(F)c(F)cc3F)CO4)cc2F)cn1` (single isomer, unassigned; (+)) [Example 98A], the IC50 was 20 nM. `Cc1cn(-c2ccc(Nc3ncc4c(n3)N(C)C(c3ccc(F)cc3C(F)(F)F)CO4)cc2F)cn1` (single isomer, unassigned; (+)) [Example 99A] gave an IC50 of 206 nM.
